{"source": "paper PMC9312091", "about": "“Mining Amphibian and Insect Transcriptomes for Antimicrobial Peptide Sequences with rAMPage” (Antibiotics, 2022)", "tested_on": "E. coli and/or S. aureus", "assay": "Antimicrobial susceptibility testing (MIC and MBC), summary statements", "assay_type": "cell-based", "conditions": "AST in vitro against E. coli ATCC 25922 and S. aureus ATCC 29213", "experimental": "A total of 21 of the 1137 putative AMPs (Table S2) were synthesized (Genscript Biotech, Piscataway, NJ, USA) and tested for their antimicrobial activity against Escherichia coli ATCC 25922 and Staphylococcus aureus ATCC 29213 in a minimum of three independent experiments (see Figure S5 for a full set of experimental results). In these antimicrobial susceptibility tests, AMP activity was assessed using two metrics: minimum inhibitory and bactericidal concentrations (MIC and MBC, respectively). Lower MIC and MBC values are desirable as they indicate that lower AMP concentrations are sufficient for inhibitory or bactericidal activity, respectively. AMP toxicity was measured by HC50 hemolytic concentration values—the concentration required to lyse ≥ 50% of porcine red blood cells. […]\nTwenty-one putative AMP sequences identified using the rAMPage pipeline were validated through a minimum of three AST experiments performed independently on separate days. In these tests, the AMP activity was assessed using two metrics: minimum inhibitory concentration and minimum bactericidal concentration (MIC and MBC, respectively). MIC and MBC values were determined using procedures outlined by the Clinical and Laboratory Standards Institute (CLSI), with the recommended adaptations for the testing of cationic AMPs described previously. […]", "note": "Peptide text beside a SMILES is read from it.", "data": [{"smiles": "CC(C)C[C@H](NC(=O)[C@H](CCCCN)NC(=O)[C@H](CCC(=O)O)NC(=O)[C@H](CC(C)C)NC(=O)[C@H](CCCNC(=N)N)NC(=O)[C@@H](NC(=O)[C@H](Cc1ccc(O)cc1)NC(=O)[C@H](CC(N)=O)NC(=O)[C@H](CCCCN)NC(=O)[C@H](CCCCN)NC(=O)[C@H](CC(N)=O)NC(=O)[C@@H](NC(=O)[C@H](CC(C)C)NC(=O)[C@H](CCCCN)NC(=O)[C@H](CCCCN)NC(=O)[C@@H](NC(=O)[C@H](CO)NC(=O)[C@H](CCCCN)NC(=O)[C@H](CO)NC(=O)[C@H](CC(C)C)NC(=O)[C@H](Cc1c[nH]c2ccccc12)NC(=O)[C@@H](N)CO)C(C)C)C(C)C)[C@@H](C)O)C(=O)N[C@@H](C)C(=O)N[C@@H](CCCCN)C(=O)N[C@@H](CCCCN)C(=O)N[C@@H](CCCCN)C(=O)N[C@@H](CC(C)C)C(=O)N[C@@H](Cc1ccccc1)C(=O)N[C@@H](CC(N)=O)C(=O)N[C@@H](CCC(=O)O)C(=O)O", "note": "[TeRu4] (H-SWLSKSVKKLVNKKNYTRLEKLAKKKLFNE-OH; N-terminus and C-terminus assumed)", "values": [{"measurement": "antimicrobial activity (in words)", "value": "active only against E. coli"}]}]}
